Assay results: patent US20220348876A1, “METABOLISM GUIDES DEFINITIVE LINEAGE SPECIFICATION DURING ENDOTHELIAL TO HEMATOPOIETIC TRANSITION” (Amniotics AB, priority 2019, published 2022)

Legend:
Format in all cases: cell-based, human
HE cells [1] = test: HE cell subculture with compounds, flow cytometry
HE cells [2] = test: Colony forming unit assay of subcultured HE cells; settings: for ratio of CFU-E colonies to the sum of CFU-G, CFU-GM and CFU-M colonies: 6 days, compared to the control
Experimental: Subcultured HE cells were treated with StemPro Accutase Cell Dissociation Reagent for 2 minutes at 37° C. and dissociated cells were resuspended in 3 ml Methocult H4230 (STEMCELL Technologies, France) (prepared according to manufacturer's instructions, with 20 mL Iscove's Modified Dulbecco's Medium containing 2.5 μg hSCF, 5 μg GM-CSF, 2.5 μg IL-3 and 500 U EPO). Each mixture was divided onto 2 wells of a non-tissue culture treated 6-well plate. Following a 12-day incubation in a humidified incubator at 37° C., 5% CO2, 20% O2, colonies were morphologically distinguished and scored. For globin analysis, colonies in Methocult wells were harvested with PBS, washed thoroughly and frozen in RLT buffer with β-mercaptoethanol. Following RNA extraction and RT (Qiagen), gene expression was assessed with taqman probes by q-PCR. The taqman probes used in this study are HBA1/2 (Hs00361191_g1), HBE1 (Hs00362216_m1), HBG2/1 (Hs00361131_g1) and KLF1 (Hs00610592_m1).

HE cells [3] = test: single-cell RNAseq of treated HE cells at day 2
Experimental: Sorted HE, EHT and HSC-like cells as well magnetically selected (Miltenyi Biotec) cord blood CD34^+ cells were plated onto Matrigel (16 μg/cm^2, Corning)-coated 96-well flat bottom plates in HE medium (Ditadi, A. & Sturgeon, C. M. Methods 101, 65-72 (2016)) with 1% penicillin-streptomycin and kept in a humidified incubator at 37° C., 5% CO2, 4% O2 overnight. The following day (day 0), wells were washed twice with PBS and fresh HE medium was added, together with UK5099 (10 μM) or DCA (3 mM), where indicated. On day 1 and 2 (as indicated), cells were washed twice with PBS 0.04% UltraPure BSA and collected after a 2-minute incubation at 37° C. with StemPro Accutase Cell Dissociation Reagent. Cells were spun down, resuspended in PBS 0.04% UltraPure BSA, counted (yield between 8,000-18,000 cells) and library preparation was conducted according to the Chromium Single Cell 3′ Reagent kit v3 instructions (10× Genomics). Sequencing was performed on a NOVASeq 6000 from Illumina with the run parameters (28-8-0-91) recommended by 10× Genomics with a final loading concentration of 300 pM of the pooled libraries. Human Umbilical Cord Blood samples were collected from Skane University Hospital (Lund and Malmo) and Helsingborg Hospital with informed consents according to guidelines approved by the regional ethical committee.
The data was processed and analyzed using Seurat v3.1.0, where cells were allowed to have up to 20% mitochondrial reads prior to log-normalization and finding the top 500 variable genes using the “vst” method. Cell cycle scores were calculated and the data was scaled regressing on mitochondrial content and the difference of the S and G2M score. Principal components were calculated prior to calculating a UMAP. Pseudotime trajectories describing two developmental routes were identified in our EHT dataset using Slingshot (Street, K. et al. BMC Genomics 19, 477 (2018)) along which the cells were ordered. The cells were then binned along each trajectory where the cell-type composition of each bin was calculated as percentages. Cord blood CD34^+ cells were mapped to our data and labeled using scCoGAPS (Stein-O'Brien, G. L. et al. Cell Syst 8, 395-411.e8 (2019)). CS13 data from Zeng et al. (Zeng, Y. et al. Cell Res 1-14 (2019)) was read and processed to make a UMAP from which the cells they name as “AEC” and “Hem” were identified. These 99 cells were mapped to our data and labeled using SCMAP (Kiselev, V. Y. et al. Nat Methods 15, 359-362 (2018)). Our EHT data was mapped to data from Zeng et al. (Zeng, Y. et al. Cell Res 1-14 (2019)) and vice versa using scCoGAPS where 10 patterns were identified in each data set and then projected to each other using projectR. Each cell was assigned to the group that achieved the highest weight. An overview showing the relationship between cell-types and patterns was done by forming a contingency table on which correspondence analysis was performed using the ca package for R. Differentially expressed genes were found using the FindAllMarkers function. Cell numbers for day 1 samples are as follows: HE=1451, EHT=1523, HSC-like=732. […] All assessed endothelial and hematopoietic genes were previously used in several publications to validate the EHT process (Zhou, F. et al. Nature 533, 487-492 (2016); Swiers, G. et al. Nat Commun 4, 2924 (2013); Ng, E. S. et al. Nature Biotechnology 34, 1168-1179 (2016) and Guibentif, C. et al. Cell Reports 19, 10-19 (2017)). […]

HE cells [4] = test: GPA+ clones from single HE cells on OP9-DL1 stroma; settings: of 552 single cells per condition, day 14; control 9
From the text: In some examples to further assess the effect of pyruvate manipulation on a single cell level, single HE cells were sorted onto OP9-DL1 stroma and GPA^+ clones were scored at day 14. From a total of 552 single cells per condition, 12 GPA^+ clones were detected in the UK5099-treated condition and 7 GPA^+ clones in the DCA-treated condition as compared to 9 GPA^+ clones in the control (FIG. 14, d).

[5] = 3 or 6 days of UK5099, vs untreated

| Compound | decrease in CD43+GPA+ population (HE cells [1]; day 6 of HE subculture, DCA 3 mM) [%] | increase in the percentage of CD43+CD45+ cells (HE cells [1]; deriving from HE, day 6, DCA 3 mM) [%] | ratio of CFU-E colonies to the sum of CFU-G, CFU-GM and CFU-M colonies (HE cells [2]) | less cells in cluster 7 compared to the control (HE cells [3]; day 2, DCA 3 mM) [%] | GPA+ clones (HE cells [4]) | proliferation of CD45+ cells deriving from HE (HE cells [1]; CTV, UK5099 10 μM or DCA 3 mM) | frequency of HSC-like cells deriving from HE (HE cells [1]; UK5099 10 μM or DCA 3 mM) | proliferation of the GPA+ population deriving from HE (HE cells [1]; day 3, CTV, UK5099 10 μM or DCA 3 mM) | HE-derived CD43+GPA+ cell output (HE cells [1]; day 3 of subculture vs control, BPTES 25 μM, UK5099 10 μM, 1-AA 4 mM, DCA 3 mM) | levels of total CD43+ cells (HE cells [1]; day 6, treated vs untreated) | proliferation by EdU incorporation (HE cells [1]; days 1 and 2 of subculture, 24 h pulse) | decrease in the CD43+CD45+ population (HE cells [1]; deriving from HE cells, day 6, UK5099 10 μM) | erythroid colony (CFU-E) formation (HE cells [2]; [5]) | granulocyte and macrophage colonies (CFU-G, GM and M) (HE cells [2]; [5]) | expression of LSD1, GFI1 and GFI1B (HE cells [3]; UK5099-treated compared to DCA-treated cells) | average expression levels of erythroid lineage genes (RYK, KLF3, TAL1, GATA2, ZFPM1, KLF1, NFE2, ANK1, HBQ1) (HE cells [3]; clusters 6 and 7, vs untreated HE cells) | more cells in cluster 7 compared to the control (HE cells [3]; day 2, UK5099 10 μM) [%] | percentage of cells in cluster 6 (HE cells [3]; day 2, UK5099 10 μM or DCA 3 mM) |
| --- | --- | --- | --- | --- | --- | --- | --- | --- | --- | --- | --- | --- | --- | --- | --- | --- | --- | --- |
| O=C(O)C(Cl)Cl [DCA, dichloroacetate] | 50 | 80 | more than 3 -fold lower | 35 | 7 | – | – | – | – | – | – | – | – | – | – | – | – | – |
| N#C/C(=C\c1cn(-c2ccccc2)c2ccccc12)C(=O)O [UK5099] | – | – | 20 -fold higher | – | 12 | did not have an effect | did not have an effect | No differences | striking increase | unchanged | no differences | 2 -fold | significantly increased | decreased | higher levels | higher | 38 | constant between conditions |
